# Source: US20160193240A1, “Ulmoside-A: Useful For Prevention Or Cure Of Metabolic Diseases” (COUNCIL OF SCIENTIFIC & INDUSTRIAL RESEARCH, priority 2013, published 2016)
# Marks after values point to notes of the source that are not given here.
# Tests used:
# [1] = biological target: T1, AdipoR2 (Homo sapiens, UniProt Q86V24); assay: Radio-ligand saturation binding assay with 125I-ULMA, CHO cells transfected with AdipoR2
# T1 construct: expressed in transfected cells; host or cells: Chinese Hamster Ovary cells (ECACC 85050302), transient transfection with Lipofectamine LTX
# T1 sequence (Q86V24 1-386): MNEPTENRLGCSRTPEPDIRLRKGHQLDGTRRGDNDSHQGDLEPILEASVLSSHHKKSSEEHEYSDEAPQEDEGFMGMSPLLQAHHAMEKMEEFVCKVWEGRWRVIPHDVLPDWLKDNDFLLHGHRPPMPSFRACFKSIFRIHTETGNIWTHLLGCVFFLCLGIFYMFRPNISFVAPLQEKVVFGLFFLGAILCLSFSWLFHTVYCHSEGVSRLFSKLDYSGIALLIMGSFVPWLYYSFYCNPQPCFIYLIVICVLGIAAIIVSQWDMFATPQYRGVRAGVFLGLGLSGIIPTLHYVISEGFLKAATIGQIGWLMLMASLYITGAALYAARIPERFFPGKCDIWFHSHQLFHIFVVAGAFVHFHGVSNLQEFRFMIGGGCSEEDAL
# Method: D. CHO cells transfected with empty vector or AdipoR1 or R2 expression vectors were incubated with various concentrations of ^125I-ULMA for 2 h at 4° C. Following washes, cells were lysed and count per minute was analyzed in a gamma counter. 200 fold molar excess of unlabeled ULMA was used for each concentration of radiolabeled ULMA for determining nonspecific activity. Count per minutes were normalized with total cellular protein content followed by further normalization with non-specific activity and plotted. Data is mean±SEM from three experiments performed in triplicates.
# Further validation of AdipoR-ULMA interaction and its quantitation was done using a radio-ligand saturation binding assay using ^125I-ULMA. ULMA was first radiolabeled using chloramines-T method. 10 μl of ^125I (20 MBq; BARC, Mumbai, India) was added to 100 μg GTDF in 5% acetic acid/methanol, then chloramine-T (Sigma, 4 μg in MilliQ H2O) was added, and the mixture was allowed to react at room temperature (24° C.) for 5 min. […] was used for protein estimation using standard Bradford assay and rest of the lysate was used for measuring radioactivity in a gamma-counter (Cole Palmer). The count per minute was normalized with protein concentration and was further normalized with non specific binding, which was determined for every concentration of ^125I-ULMA, using 200 fold molar excess of unlabeled ULMA.
# [2] = test system: wistar rats; assay: Dexamethasone-mediated imbalance in serum Na, K level in rats; format: in vivo, rat; settings: Dex + ULMA, 14 days
# Method: Food intake was measured daily and the rats were weighed each week. The rats were fasted overnight (O/N) on day 14th and on day 15th oral glucose tolerance test was performed. Following oral glucose tolerance test (OGTT), rats were kept with food and water ad libitum for one day. On day 16th, rats were fasted again O/N and then euthanized. At autopsy, from 5 animals/group, tissues were collected and snap frozen in liquid nitrogen. Blood was collected from cardiac punctures. Plasma was separated from whole blood by centrifugation at 3000 rpm for 20 min immediately after collection of blood and stored at −80° C. until further analysis. Forelimb (quadriceps) skeletal muscles were processed for RNA and protein extraction, followed by quantitative real-time PCR (QRT-PCR) analysis. Two animals from each group were used for photography post autopsy.
# [3] = test system: Mouse stromal vascular fractions (SVF); assay: Brown adipose marker expression and mitochondrial copy number in mouse stromal vascular fractions; format: cell-based
# Method: B. Mouse stromal vascular fractions (SVF) isolated from epididymal fat pads using collagenase digestion was differentiated in presence or absence of 10 nM ULMA and were analyzed for indicated mRNA expressions. **p<0.01, ***p<0.001 as determined by two tailed unpaired student's t-test.
# C. Cells from identical set of experiments as described in FIGS. 5A and 5B or human SVFs prepared by collagenase digestions were analyzed by western blot analysis for determination of UCP-1, UCP-2 and PGC-1α protein level. Beta-actin was used as a loading control. Data is representative of three independent experiments.
# D. Mouse SVFs differentiated in presence or absence of 10 nM ULMA were evaluated for mitochondrial copy number. Total cellular DNA was isolated from these cells by standard procedure (using a genomic DNA isolation kit; Macherey Nagel; according to manufacturer's instructions) and the mitochondrial DNA content was measured by QRT-PCR based measurement of mitochondrial cytochrome b (Cytb) by qPCR and normalized with genomic glycerol three phosphate dehydrogenase DNA level. Data represent mean±SEM from three independent experiments performed in triplicates. **p<0.01 as determined by two tailed unpaired student's t-test.
# Mouse stromal vascular fractions (SVF) from epididymal fat pad were prepared using standard collagenase digestion method. Human SVF was prepared from human lipoaspirates (subcutaneous) collected from an obese individual undergoing liposuction following approval of Institutional Ethical Committee. To isolate SVFs, epidymal fat pads tissue or lipoaspirates were washed 6× in PBS and then were dispensed in tissue culture flasks. 0.2% sterile collagenase (Sigma) solution containing 1× antibiotic-antimycotic (Invitrogen) was then added to the adipose and the flasks were shaken vigorously for 10 seconds. The flasks were then incubated at 37° C. on a shaker for 2 hours with manual shaking of the flasks for 5-10 seconds every 15 min. After completion of digestion, FBS was added to the final concentration of 10% to the flasks, mixed and the collagenase digested tissue were then dispensed in 50 ml conical tubes and were centrifuged at 400 g for 10 min at room temp. The supernatant was discarded and the pellets constituting the SVFs were then reconstituted in culture medium (DMEM/F12 50:50+10% FBS) and plated in T25 tissue culture flasks and cultured for further experiments.
# The SVFs were differentiated as for 3T3L-1 (described above), in presence of ULMA or vehicle (10 d for mouse SVF and 21 d for human SVF), following which they were lysed and used for QPCR or western blot analysis.
# For western blot-based determination of UCP-1, UCP-2 and PGC-1α protein level, cells from an identical set of experiment were lysed and western blotted with UCP-1, UCP-2 (Abcam), PGC-1α(Calbiochem), or beta-actin (cell signaling technology; used as a loading control) as described above.
# [4] = differentiated in presence of ULMA, 10 d
compound,measurement,setting,value
"O=C1c2c(cc(O)c([C@@H]3O[C@H](CO)[C@@H](O)[C@H](O)[C@H]3O)c2O)O[C@@H](c2ccc(O)c(O)c2)[C@@H]1O [ULMA, (2S,3S)-(+)-3′,4′,5,7-tetrahydroxydihydroflavonol-6-C-β-D-glucopyranoside]",maximum binding (BMAX),[1],3950 fmol/mg of protein
same,Kd,"[1]; 2 hours, ice cold, read-out: dissociation constant (Kd)",326 nM
same,Na (mmol/l),[2],124 ± 3.7^a mmol/l
same,serum K,[2],3.93 ± 0.08 mM
same,PGC-1α mRNA level,"[3]; 10 nM, 10 d differentiation",significant increase
same,PRDM16 mRNA level,"[3]; 10 nM, 10 d differentiation",significant increase
same,UCP-1 mRNA level,"[3]; 10 nM, 10 d differentiation",significant increase
same,UCP-2 mRNA level,"[3]; 10 nM, 10 d differentiation",significant increase
same,mitochondrial DNA copy number (cytb level),"[3]; 10 nM, differentiated mouse SVFs",significantly higher
same,PGC-1α protein level,[3]; [4],elevated
same,UCPs protein level,[3]; [4],elevated
